The results in this text go back to US9255062B2, “Fatty acid derivatives for oral administration endowed with high palatability” (priority 2008, dated 2016).

Structures are written as SMILES.

Broadly, the LD50 is the dose expected to kill half of the subjects tested. Read a low LD50 as greater toxicity.

A short description of data set [1]: in vivo. The settings on record: both, Swiss, mouse, po.
Data set [2] has as its system Swiss mice. As to conditions: oral administration.
Data set [3] concerns Caco-2 cells. The experiment in a line: Ussing chamber, short circuit current in Caco-2 monolayer, baseline conditions. It counts as cell-based, human. The settings on record: Caco-2 in Ussing chamber; for decrease in short circuit current (ΔIsc), maximum effect: final concentration 10 mM; for decrease in short circuit current (ΔIsc), maximum effect / time of maximum decrease in Isc after addition: luminal (mucosal) side; for effect on tissue conductance: luminal side, measure of tissue integrity. As to the method:
The experiments were carried out using a human intestinal cell line called Caco-2, obtained from the American Type Culture Collection (ATCC, Rockville, USA). These cells, 15 days after confluence, form a monolayer of enterocytes with morphological and functional features identical to those of ileal enterocytes at the apex of the villus (Berni Canani R, et al. Gastroenterology 2003; 124:368-76). Cells were grown in a culture medium consisting in Dulbecco's Modified Eagle's Medium (DMEM) containing glucose (4.5 g/L), 10% Fetal Calf Serum (FCS), 1% non-essential amino acids, 1% L-glutamine, 1% sodium pyruvate, streptomycin ([…]), penicillin ([…]), and were incubated at 37° C. in an atmosphere of 5% CO2 and […]. The culture medium was replaced every day.
For all the experiments were used cells at the 30th-40th pass, 2×10^6 cells per filter, grown on polycarbonate supports (pore size 0.4 μm, diameter 24.5 mm) for 15 days post-confluence. Each support containing the cells was mounted in an Ussing chamber (World Precision Instruments, Sarasota, Fla.) as a cellular monolayer between the luminal and the serosal compartments (Berni Canani R, et al. J. Pediatr. Gastroenterol. Nutr. 28: 315-320, 1999). The Ussing chamber system, allows through the measurement of defined electrical parameters, the study of transepithelial transport of water and electrolytes. These parameters consist in: 1) transepithelial potential difference (PD) and short circuit current (Isc), an expression of the transepithelial passage of ions; 2) resistance (RT) and, ionic conductance (G), a measure of tissue integrity. An absorptive-type stimulus on transepithelial transport induces a decrease in Isc, whereas a secretory-type stimulus induces an increase in Isc. The Isc is expressed in microamperes per square centimeter (μA/cm^2), conductance in millisiemens per square centimeter (mS/cm^2) and the transepithelial potential difference in millivolts (mV). Measurement of these electrical parameters is made possible by the presence of silver electrodes, placed proximally to both sides (serosal and luminal) of the cellular monolayer and connected with an automatic voltage system equipped with software for data acquisition and processing (DVC 1000, World Precision Instruments, Sarasota, Fla., USA). Each compartment contained 10 ml of Ringer's solution with the following composition (in mmol/L): NaCl, 114; KCl, 5; NaH2PO4, 0.3; Na2HPO4, 1.65; CaCl2, 1.25; MgCl2, 1.1; NaHCO3, 25; glucose, 10. The incubation liquid was circulated through the chamber by means of the flow of a gaseous mixture composed of 95% O2 and 5% CO2 and was maintained at a temperature of 37° C. by means of a thermostat (Berni Canani R. et al. J. Pediatr. Gastroenterol. Nutr. 28: 315-320, 1999). The study of changes in electrical parameters reflecting changes in transepithelial transport of water and electrolytes was carried out in baseline conditions and after administration of the compounds on the luminal side of the monolayer of Caco-2 cells.

In turn, `CCCC(=O)O` [butyric acid, reference compound] had an LD50 in data set [1] of 8800 mg/kg.

With `CCCC(=O)NC(Cc1ccccc1)C(N)=O` (stereo not shown) [Compound 1, N-(1-carbamoyl-2-phenyl-ethyl)butyramide], in data set [2], the “LD50 expressed as equivalent of butyric acid” value (from here on “LD50 expressed as equivalent”) worked out at 8.8 g. The compound also displayed an LD50 in data set [1] of 23800 mg/kg. Also, in data set [3], the “decrease in short circuit current (ΔIsc), maximum effect” value (“decrease … (ΔIsc), maximum effect” for short) was −0.9±0.3 μA/cm^2; the “time of maximum decrease in Isc after addition” value (“time of maximum decrease in Isc” below) is given as “approximately 40 minutes”; the “effect on tissue conductance” value is on record as “without interfering with the stability of tissue conductance”.

Turning to `CCCC(=O)[O-].[Na+]` [sodium butyrate, reference compound], in data set [3], the “decrease … (ΔIsc), maximum effect” value is recorded as −0.8±0.2 μA/cm^2; the “time of maximum decrease in Isc” value is recorded as “approximately 35 minutes”; the “effect on tissue conductance” value is reported as “did not alter tissue conductance”.

With `CCCC1=NC(=O)C(Cc2ccccc2)N1` (stereo not shown) [Compound 3, 5-benzyl-2-propyl-1H-imidazol-4(5H)-one], the “LD50 expressed as equivalent” value in data set [2] is given as 8.8 g. In data set [1], this compound registered a median lethal dose (LD50) of 21600 mg/kg. For the same compound, in data set [3], the “decrease … (ΔIsc), maximum effect” value is −1.1±0.1 μA/cm^2; the “time of maximum decrease in Isc” value came to 50 min; the “effect on tissue conductance” value is “absence of any significant changes in tissue conductance”.

On to `CCCC(=O)NC(=O)C(Cc1ccccc1)NC(=O)CCC` (stereo not shown) [Compound 2, N-(1-butyroyl-carbamoyl-2-phenyl-ethyl)butyramide], for which the “LD50 expressed as equivalent” value in data set [2] was 8.8 g. Also, the LD50 in data set [1] was determined as 16300 mg/kg. Moreover, in data set [3], the “decrease … (ΔIsc), maximum effect” value is on record as −0.4±0.1 μA/cm^2; the “time of maximum decrease in Isc” value was 40 to 45 min; the “effect on tissue conductance” value is “without interfering with the stability of tissue conductance”.
